Results: patent US20130059855A1, “CRYSTAL OF DI(ARYLAMINO)ARYL COMPOUND” (ASTELLAS PHARMA INC., priority 2010, published 2013)
Values after ≈ are worked out from the molar mass of the structure shown.

Legend:
[1] = Solubility in 50% acetone aqueous solution; type: physicochemical
Description: (§1) The solubility of A02-type crystal, A03-type crystal and A04-type crystal was measured for 50% acetone aqueous solution. The solubility is lowest for A04-type crystal at all temperatures.

[2] = Assessment of filterability (constant pressure filtration test, Ruth plot); type: physicochemical; details: for Filtration Constant B / Cake Average Specific Resistance αm: crystallization slurry, applied pressure 100 kPa; for Filtration Constant B: from inclination of Ruth plot; for Cake Average Specific Resistance αm: constant pressure filtration
Description: Slurries of A02-type crystal prepared by a method similar to that of the Variation of Reference Example 2 and A04-type crystal prepared by a method similar to that of Example 2 were used to perform constant pressure filteration test, and the cake-average filteration specific resistance αm was obtained by constant pressure filteration formula of Ruth shown in formula (1) to assess filterability. Note that the slurry used in the present test is the crystallization slurry immediately before the crystals are collected by filtration in the preparation of the crystals.
The calculation of cake average specific resistance αm [m/kg] was performed by plotting (Ruth plot) μ [m^3/m^2] and Δθ/Δν [sec/m], obtaining the filtration constant B from the inclination of the obtained line, and inserting the parameters shown in the filtration condition row of Table 1 to formula (2).

Hygroscopicity Test A = type: physicochemical; details: relative humidity of 93% (KNO3 saturated aqueous solution), 25° C., 7 days
Description: About 0.5 g of A04-type crystal was weighed into an (open) weighing bottle with a known mass to obtain a precise mass, then the weighing bottle was placed in a desiccator adjusted to a relative humidity of 93% by KNO3 saturated aqueous solution and stored at 25° C. for 7 days before measuring the change in mass.

[3] = Long term stability test (storage stability); type: physicochemical; details: powder X-ray diffraction, DSC, HPLC
Description: A04-type crystal samples were separately stored for 3 months under (1) 40° C./75% R.H., (2) 60° C./uncontrolled humidity, and (3) 25° C./uncontrolled humidity/D65 lamp (1000 lux) illumination (2 months under condition (3)), and the change in the crystal form of the samples before and after storage was measured by powder X-ray diffraction and DSC analysis and the change in the purity of the same was confirmed by HPLC measurement (using HPLC Condition 1 or HPLC Condition 2 shown below as the measurement conditions).

[4] = Assessment of the stability level (solubility, transformation, DSC); type: physicochemical; details: all temperature range; A01- to A05-type crystals compared
Description: as §1
(§2) A05-type crystal was subjected to slurry agitation under room temperature and its solvent-mediated transformation was studied.
The schematic diagram showing the interrelation of the stability levels of the crystals based on the above result is presented as FIG. 4.

[5] = Hygroscopicity Test B (water absorption/dehydration behavior); type: physicochemical; details: 25° C., humidity range of 5-95% R.H.
Description: The water absorption/dehydration behavior of A04-type crystal was assessed using water balance measuring apparatus SGA-X100 (VTI) under the following conditions. Temperature: 25° C., measurement range: 5-95% R.H., measurement interval: 5%.

[6] = Study of solvent-mediated transformation; type: physicochemical; details: slurry agitation in methyl ethyl ketone under room temperature
Description: as §2

EML4-ALK fusion protein = details: reported in Patent Document 1 (WO 2009/008371); cited from earlier work
mutant EGFR protein = details: reported in Patent Document 1 (WO 2009/008371); cited from earlier work

Solubility ([1]; 25° C.) [g/L] | Solubility ([1]; 40° C.) [g/L] | Solubility ([1]; 55° C.) [g/L] | Filtration Constant B [2] | Cake Average Specific Resistance αm [2] | SMILES | also measured
13.6 (≈ 23.4 mM) | 17.7 (≈ 30.5 mM) | 30.8 (≈ 53 mM) | 81406 | 1.31×10^11 m/kg | COc1cc(N2CCC(N3CCN(C)CC3)CC2)ccc1Nc1ncnc(Nc2ccccc2S(=O)(=O)C(C)C)n1 [A02-type crystal, N-{2-methoxy-4-[4-(4-methylpiperazin-1-yl)piperidin-1-yl]phenyl}-N′-[2-(propane-2-sulfonyl)phenyl]-1,3,5-triazine-2,4-diamine] | cake average specific resistance relative to A04-type crystal ([2]; ratio of A02-type crystal to A04-type crystal, filtration time proportional): about 155 times
5.3 (≈ 9.13 mM) | 8.5 (≈ 14.6 mM) | 16.1 (≈ 27.7 mM) |  |  | COc1cc(N2CCC(N3CCN(C)CC3)CC2)ccc1Nc1ncnc(Nc2ccccc2S(=O)(=O)C(C)C)n1 [A03-type crystal, N-{2-methoxy-4-[4-(4-methylpiperazin-1-yl)piperidin-1-yl]phenyl}-N′-[2-(propane-2-sulfonyl)phenyl]-1,3,5-triazine-2,4-diamine] | 
4.5 (≈ 7.75 mM) | 8.0 (≈ 13.8 mM) | 13.0 (≈ 22.4 mM) | 2201.7 | 8.43×10^8 m/kg | COc1cc(N2CCC(N3CCN(C)CC3)CC2)ccc1Nc1ncnc(Nc2ccccc2S(=O)(=O)C(C)C)n1 [A04-type crystal, N-{2-methoxy-4-[4-(4-methylpiperazin-1-yl)piperidin-1-yl]phenyl}-N′-[2-(propane-2-sulfonyl)phenyl]-1,3,5-triazine-2,4-diamine] | change in mass (hygroscopicity) (Hygroscopicity Test A): no significant change in mass; change in the crystal form or the purity after storage ([3]; 25° C./uncontrolled humidity/D65 lamp (1000 lux) illumination, 2 months): no significant change; change in the crystal form or the purity after storage ([3]; 40° C./75% R.H., 3 months): no significant change; change in the crystal form or the purity after storage ([3]; 60° C./uncontrolled humidity, 3 months): no significant change; thermodynamic stability level among crystal forms of Compound A [4]: most stable crystal; weight change through water absorption and dehydration [5]: lower than 0.1%
 |  |  |  |  | COc1cc(N2CCC(N3CCN(C)CC3)CC2)ccc1Nc1ncnc(Nc2ccccc2S(=O)(=O)C(C)C)n1 [A05-type crystal, N-{2-methoxy-4-[4-(4-methylpiperazin-1-yl)piperidin-1-yl]phenyl}-N′-[2-(propane-2-sulfonyl)phenyl]-1,3,5-triazine-2,4-diamine] | solvent-mediated transformation [6]: transformed to A04-type crystal after 1 minute of agitation
 |  |  |  |  | COc1cc(N2CCC(N3CCN(C)CC3)CC2)ccc1Nc1ncnc(Nc2ccccc2S(=O)(=O)C(C)C)n1 [Compound A, N-{2-methoxy-4-[4-(4-methylpiperazin-1-yl)piperidin-1-yl]phenyl}-N′-[2-(propane-2-sulfonyl)phenyl]-1,3,5-triazine-2,4-diamine] | inhibitory activity against the kinase activity of EML4-ALK fusion protein (EML4-ALK fusion protein): good inhibitory activity; inhibitory activity against the kinase activity of mutant EGFR protein (mutant EGFR protein): good inhibitory activity
